Laboratory results as given in patent US6737383B1, “Herbicidal oxadiazolidines” (priority 1999, dated 2004).

Experiments:
bedstraw = test: Test B pre/postemergence bedstraw; type: in vivo, Galium aparine; settings: Postemergence
Outline: (§1)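 Herbicidal effect was estimated by eye on a ten-point control scale after plants spent twelve to sixteen days in a greenhouse following soil or foliar treatment. Foliar sprays targeted plants at one to four leaves; all doses were formulated in a non-phytotoxic solvent with surfactant.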

purple nutsedge = test: Test B pre/postemergence purple nutsedge; type: in vivo, Cyperus rotundus
Outline: as §1

pigweed = test: Test B pre/postemergence pigweed; type: in vivo, Amaranthus retroflexus
Outline: as §1

bamyardgrass = test: Test B flood test barnyardgrass; type: in vivo, Echinochloa crus-galli
Outline: (§2)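 Read-out is a visual response score from 0 (no effect) to 10 (complete control), assigned by comparison with untreated controls. Treatment was applied at the 2-leaf stage, and plants stayed in the greenhouse for twelve to sixteen days before scoring.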

sugar beet = test: Test B pre/postemergence sugar beet; type: in vivo, Beta vulgaris
Outline: as §1

duck salad = test: Test B flood test duck salad; type: in vivo, Heteranthera limosa
Outline: as §2

crabgrass = test: Test B pre/postemergence crabgrass; type: in vivo, Digitaria sanguinalis
Outline: as §1

velvetleaf = test: Test B pre/postemergence velvetleaf; type: in vivo, Abutilon theophrasti
Outline: as §1

corn = test: Test B pre/postemergence corn; type: in vivo, Zea mays
Outline: as §1

wheat = test: Test B pre/postemergence wheat; type: in vivo, Triticum aestivum
Outline: as §1

morningglory = test: Test B pre/postemergence morningglory; type: in vivo, Ipomoea hederacea
Outline: as §1

blackgrass = test: Test B pre/postemergence blackgrass; type: in vivo, Alopecurus myosuroides
Outline: as §1

cocklebur = test: Test B pre/postemergence cocklebur; type: in vivo, Xanthium strumarium
Outline: as §1

smallflower flatsedge = test: Test B flood test smallflower flatsedge; type: in vivo, Cyperus difformis
Outline: as §2

rape = test: Test B pre/postemergence rape; type: in vivo, Brassica napus
Outline: as §1

wild oat = test: Test B pre/postemergence wild oat; type: in vivo, Avena fatua
Outline: as §1

rice = test: Test B flood test rice; type: in vivo, Oryza sativa
Outline: as §2

surinam grass = test: Test B pre/postemergence surinam grass; type: in vivo, Brachiaria decumbens
Outline: as §1

giant foxtail = test: Test B pre/postemergence giant foxtail; type: in vivo, Setaria faberii
Outline: as §1

soybean = test: Test B pre/postemergence soybean; type: in vivo, Glycine max
Outline: as §1

[1] = Postemergence, Rate 125 g/ha, scale 0 to 10, 0 is no effect, 10 is complete control
[2] = Postemergence, Rate 500 g/ha, scale 0 to 10, 0 is no effect, 10 is complete control
[3] = Preemergence, Rate 62 g/ha, scale of 0 to 10 where 0 is no effect and 10 is complete control
[4] = Preemergence, Rate 125 g/ha, scale 0 to 10, 0 is no effect, 10 is complete control
[5] = Preemergence, Rate 500 g/ha, scale 0 to 10, 0 is no effect, 10 is complete control
[6] = Rate 62 g/ha, Postemergence, scale 0 to 10 (0 no effect, 10 complete control)
[7] = Rate 62 g/ha, flood test species, Pre-emergence, visual evaluation after twelve to sixteen days
[8] = Rate 125 g/ha, under heading Pre-emergence, flood test species, visual evaluation after twelve to sixteen days
[9] = Rate 250 g/ha, Pre-emergence (flood test species), scale 0 to 10, 0 is no effect, 10 is complete control
[10] = Rate 500 g/ha, Pre-emergence section of Table B, 0 to 10 scale (0 no effect, 10 complete control)
[11] = Postemergence, Rate 250 g/ha, scale 0 to 10
[12] = Preemergence, Rate 250 g/ha, scale 0 to 10, 0 is no effect, 10 is complete control

Structure (SMILES): CC(C)N(C(=O)n1oc(=O)n(CC(=O)C2CC2)c1=O)c1ccccc1 [Compound 489]
- Bedstraw plant response rating (bedstraw; Rate 125 g/ha, scale 0 to 10, 0 is no effect, 10 is complete control): 3
- Bedstraw plant response rating (bedstraw; Rate 250 g/ha, scale 0 to 10): 5
- Bedstraw plant response rating (bedstraw; Rate 62 g/ha, scale 0 to 10 (0 no effect, 10 complete control)): 0
- Nutsedge plant response rating (purple nutsedge; [1]): 0
- Plant response rating, Nutsedge (purple nutsedge; [2]): 0
- Plant response rating, Nutsedge (purple nutsedge; [3]): 0
- Nutsedge plant response rating (purple nutsedge; [4]): 0
- Nutsedge plant response rating (purple nutsedge; [5]): 0
- Nutsedge plant response rating (purple nutsedge; [6]): 0
- Redroot pigweed plant response rating (pigweed; [1]): 0
- Plant response rating, Redroot pigweed (pigweed; [2]): 2
- Plant response rating, Redroot pigweed (pigweed; [3]): 0
- Redroot pigweed plant response rating (pigweed; [5]): 10
- Redroot pigweed plant response rating (pigweed; [6]): 0
- Plant response rating, Barnyardgrass (0 to 10 scale, 0 is no effect, 10 is complete control) (bamyardgrass; [7]): 0
- Barnyardgrass plant response rating (0 to 10 scale, 0 is no effect, 10 is complete control) (bamyardgrass; [8]): 0
- Barnyardgrass plant response rating (bamyardgrass; [9]): 0
- Barnyardgrass plant response rating (bamyardgrass; [10]): 0
- Sugarbeets plant response rating (sugar beet; [1]): 0
- Plant response rating, Sugarbeets (sugar beet; [2]): 0
- Plant response rating, Sugarbeets (sugar beet; [3]): 0
- Sugarbeets plant response rating (sugar beet; [4]): 2
- Sugarbeets plant response rating (sugar beet; [5]): 5
- Sugarbeets plant response rating (sugar beet; [6]): 0
- Plant response rating, Ducksalad (0 to 10 scale, 0 is no effect, 10 is complete control) (duck salad; [7]): 0
- Ducksalad plant response rating (0 to 10 scale, 0 is no effect, 10 is complete control) (duck salad; [8]): 0
- Ducksalad plant response rating (duck salad; [9]): 0
- Ducksalad plant response rating (duck salad; [10]): 0
- Crabgrass plant response rating (crabgrass; [1]): 5
- Crabgrass plant response rating (crabgrass; [11]): 8
- Plant response rating, Crabgrass (crabgrass; [2]): 9
- Plant response rating, Crabgrass (crabgrass; [3]): 9
- Crabgrass plant response rating (crabgrass; [4]): 10
- Crabgrass plant response rating (crabgrass; [5]): 10
- Crabgrass plant response rating (crabgrass; [6]): 2
- Velvetleaf plant response rating (velvetleaf; [1]): 0
- Plant response rating, Velvetleaf (velvetleaf; [2]): 5
- Plant response rating, Velvetleaf (velvetleaf; [3]): 2
- Velvetleaf plant response rating (velvetleaf; [4]): 2
- Velvetleaf plant response rating (velvetleaf; [5]): 7
- Velvetleaf plant response rating (velvetleaf; [6]): 0
- Corn plant response rating (corn; [1]): 0
- Corn plant response rating (corn; [11]): 0
- Plant response rating, Corn (corn; [2]): 4
- Plant response rating, Corn (corn; [3]): 0
- Corn plant response rating (corn; [4]): 0
- Corn plant response rating (corn; [5]): 5
- Corn plant response rating (corn; [6]): 0
- Wheat plant response rating (wheat; [1]): 0
- Plant response rating, Wheat (wheat; [2]): 2
- Plant response rating, Wheat (wheat; [3]): 0
- Wheat plant response rating (wheat; [4]): 0
- Wheat plant response rating (wheat; [5]): 6
- Wheat plant response rating (wheat; [6]): 0
- Morningglory plant response rating (morningglory; [1]): 7
- Plant response rating, Morningglory (morningglory; [2]): 10
- Plant response rating, Morningglory (morningglory; [3]): 0
- Morningglory plant response rating (morningglory; [4]): 0
- Morningglory plant response rating (morningglory; [5]): 1
- Morningglory plant response rating (morningglory; [6]): 2
- Blackgrass plant response rating (blackgrass; [1]): 6
- Blackgrass plant response rating (blackgrass; [11]): 8
- Plant response rating, Blackgrass (blackgrass; [2]): 8
- Plant response rating, Blackgrass (blackgrass; [3]): 7
- Blackgrass plant response rating (blackgrass; [4]): 8
- Blackgrass plant response rating (blackgrass; [12]): 9
- Blackgrass plant response rating (blackgrass; [5]): 10
- Blackgrass plant response rating (blackgrass; [6]): 1
- Cocklebur plant response rating (cocklebur; [1]): 0
- Cocklebur plant response rating (cocklebur; [11]): 0
- Plant response rating, Cocklebur (cocklebur; [2]): 0
- Plant response rating, Cocklebur (cocklebur; [3]): 0
- Cocklebur plant response rating (cocklebur; [4]): 0
- Cocklebur plant response rating (cocklebur; [12]): 0
- Cocklebur plant response rating (cocklebur; [5]): 0
- Cocklebur plant response rating (cocklebur; [6]): 0
- Plant response rating, S. Flatsedge (0 to 10 scale, 0 is no effect, 10 is complete control) (smallflower flatsedge; [7]): 0
- S. Flatsedge plant response rating (0 to 10 scale, 0 is no effect, 10 is complete control) (smallflower flatsedge; [8]): 0
- S. Flatsedge plant response rating (smallflower flatsedge; [9]): 0
- S. Flatsedge plant response rating (smallflower flatsedge; [10]): 0
- Rape plant response rating (rape; [1]): 0
- Plant response rating, Rape (rape; [2]): 0
- Plant response rating, Rape (rape; [3]): 0
- Rape plant response rating (rape; [4]): 0
- Rape plant response rating (rape; [5]): 9
- Rape plant response rating (rape; [6]): 0
- Wild oats plant response rating (wild oat; [1]): 1
- Plant response rating, Wild oats (wild oat; [2]): 3
- Plant response rating, Wild oats (wild oat; [3]): 0
- Wild oats plant response rating (wild oat; [4]): 4
- Wild oats plant response rating (wild oat; [5]): 9
- Wild oats plant response rating (wild oat; [6]): 0
- Plant response rating, Rice (0 to 10 scale, 0 is no effect, 10 is complete control) (rice; [7]): 0
- Rice plant response rating (0 to 10 scale, 0 is no effect, 10 is complete control) (rice; [8]): 0
- Rice plant response rating (rice; [9]): 0
- Rice plant response rating (rice; [10]): 0
- B. signalgrass plant response rating (surinam grass; [1]): 2
- B. signalgrass plant response rating (surinam grass; Postemergence, Rate 250 g/ha, scale 0 to 10, 0 no effect, 10 complete control): 6
- Plant response rating, B. signalgrass (surinam grass; [2]): 8
- Plant response rating, B. signalgrass (surinam grass; [3]): 6
- B. signalgrass plant response rating (surinam grass; [4]): 7
- B. signalgrass plant response rating (surinam grass; [12]): 8
- B. signalgrass plant response rating (surinam grass; [5]): 9
- B. signalgrass plant response rating (surinam grass; [6]): 1
- Giant foxtail plant response rating (giant foxtail; [1]): 8
- Plant response rating, Giant foxtail (giant foxtail; [2]): 9
- Plant response rating, Giant foxtail (giant foxtail; [3]): 9
- Giant foxtail plant response rating (giant foxtail; [4]): 10
- Giant foxtail plant response rating (giant foxtail; [5]): 10
- Giant foxtail plant response rating (giant foxtail; [6]): 2
- Soybean plant response rating (soybean; [1]): 5
- Plant response rating, Soybean (soybean; [2]): 7
- Plant response rating, Soybean (soybean; [3]): 0
- Soybean plant response rating (soybean; [4]): 1
- Soybean plant response rating (soybean; [5]): 3
- Soybean plant response rating (soybean; [6]): 3
